Molecules are shown by their SMILES. Where only a bound is given, the exact number is not on record here.

Common to all, as to format: physicochemical
Series [1] in a line: Solubility of Compound 1 in water, shake-flask method. Particulars: thermodynamic from solid, visually determined at 20° C., water added stepwise to 10 mg. The method, then:
Water was added stepwise to 10 mg of Compound 1, with 15 minutes in between additions, until complete dissolution was obtained.

A short description of series [2]: Solubility in water of scaled-up salts of Compound B (salt screen). The method, then: These slurry experiments were also performed at gram scale with 25 mg/mL Compound B in 20 mL ethyl acetate with 1 equivalent acid.
Series [3] is described as follows: Dynamic vapor sorption (DVS), hygroscopicity and XRPD before/after. Particulars: for hygroscopicity / crystallinity / polymorphic form (XRPD) after DVS: mesylate; for crystallinity / polymorphic form (XRPD) after DVS: XRPD before and after DVS cycles of relative humidity. How it is done: DVS studies were performed using a Surface Measurement Systems Ltd. DVS-1 No Video. The sample, typically 20-30 mg, was loaded into a balance pan and equilibrated at 0% relative humidity (RH). After the material was dried, the RH was increased at 10% per step for 1 hour per increment, ending at 95% RH. After completion of the sorption cycle, the sample was dried using the same method, and the cycle was repeated. The software used for data collection was DVSWin v3.01 No Video. Data analysis was performed using DVS Standard Analysis Suite v6.3.0 (Standard).

The compound `CN1[C@H]2CC[C@@H]1c1c(sc(NC(=O)Nc3ccc(Cl)cc3)c1C(N)=O)C2.CS(=O)(=O)O` [Compound 1, (4R,7S)-2-(3-(4-chlorophenyl)ureido)-9-methyl-5,6,7,8-tetrahydro-4H-4,7-epiminocyclohepta[b]thiophene-3-carboxamide mesylate] displayed a solubility at 15 min in series [1] greater than 97 mg/mL. Besides, the solubility in series [2] lay within 97 to 970 mg/mL. The “total mass uptake in the first sorption cycle” value in series [3] (DVS, 0% to 95% RH, first sorption cycle) is 1.8%. The “total mass uptake in the second cycle” value in series [3] (DVS, 0% to 95% RH, second cycle) stood at 1.6%. The hygroscopicity result in series [3] (DVS, listed as mesylate salt) is on record as “slightly hygroscopic at high humidity levels”; in series [3] (DVS) it was “slightly hygroscopic”. The figures for the “crystallinity / polymorphic form (XRPD) after DVS” value in series [3] (listed as mesylate salt) and in series [3] were “remained unchanged” and “unchanged”, respectively.

Source of the values: US11779573B2, “Crystalline forms of compounds for preventing or treating sensory hair cell death” (University of Washington, priority 2017, dated 2023).
